# Laboratory results from publication PMC9727064, “Performance assessment and economic analysis of a human Liver-Chip for predictive toxicology” (Communications Medicine, 2022).
# Where a name gives a salt, the structure may show the parent alone. Read-outs that look alike come from different tables or passages of the source.
# Columns and labels:
# human Liver-Chip = test: Liver-Chip DILI prediction: minimum toxic concentration and margin of safety (MOS)-like figure; details: free IC50 concentration in the assay divided by total concentration of drug in human plasma at Cmax;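 also: Toxic concentration is the lowest across albumin IC50 and ALT and morphology endpoints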
# From the text: Because the fundamental principles of drug action dictate that free (unbound) drug concentrations drive drug effects, we explored an alternative methodology for calculating the MOS-like values by accounting for protein binding using a previously reported approach. Accordingly, we reanalyzed the findings for the 27 drugs in our study by accounting for protein binding.
# [1] = tested on: clinical drug-induced liver injury; details: clinical DILI severity category 1 to 5; cited from earlier work
# [2] = cited from earlier work
# [3] = tested on: human Liver-Chip (primary human hepatocytes); test: Liver-Chip albumin production in top channel effluent (ELISA); assay type: cell-based; details: expanded drug list; lowest multiplier causing a 50% reduction in albumin production; donor 1
# From the text: (§1) Cycles 1 to 4 tested 6–8 concentrations in duplicate for each of 10–13 drugs. To determine which sampling strategy was optimal for cycles 1 to 4 (16 doses × 1 replicate, 8 × 2, 5 × 3, or 4 × 4), we generated three different “dose-response” synthetic datasets, each distorted by different noise levels (low, medium, or high). For each of these datasets, we performed curve-fitting analyses and calculated the Root Mean Square Error between the “true” and estimated IC50 parameter. […] Some drugs were also repeated across cycles (on different donors or at different concentrations) to ensure experimental robustness. However, to replicate a more typical study design likely to be carried out by scientists in the pharmaceutical industry, we created cycle 5 with 6 drugs, where each was tested in 4 concentrations in triplicate. For each cycle, chips were dosed with drug over 8 days (referred to as Day 0 through Day 7).
# (§2) The drug dosing concentrations were determined from the unbound human Cmax of each drug. First, the expected fraction of drug unbound in media with 2% FBS was extrapolated from plasma binding data for each drug. Dosing concentrations were then back calculated such that the unbound fraction in media would reflect relevant multiples of unbound human Cmax (Supplementary Data 1).
# (§3) On the first dosing day (Day 0), all chips were imaged using the ECHO microscope. Five hundred microliters of effluent was collected from all four reservoirs of the pod and placed in a labeled 96-well plate. After collection, all the remaining media was carefully aspirated before dosing with 3.8 mL of corresponding dosing solution. Dosing occurred on study days 0, 2, and 4 for chips flowing at 30 µL/h, and on days 0, 1, 2, 3, 4, 5, and 6 for chips flowing at 150 µL/h. Effluent collection occurred on days 1, 3, and 7.
# (§4) Top channel outlet effluents were analyzed to quantify albumin and alanine transaminase (ALT) levels on days 1, 3, and 7 using sandwich ELISA kits (Abcam, Albumin ab179887, ALT ab234578) according to vendor-provided protocols. Frozen (−80 °C) effluent samples were thawed overnight at 4 °C prior to assay. The Hamilton Vantage liquid handling platform was used to manage effluent dilutions (1:500 for albumin, neat for ALT), preparation of standard curves, and addition of antibody cocktail. Absorbance at 450 nm was measured using the SynergyNeo Microplate Reader (BioTek).
# All statistical analyses were conducted in R[21] (version 4.1.2) and figures were produced using the R package ggplot2[22] (version 3.3.5). The dose-response analysis (Fig. 4) was carried out using the popular drc R package developed by Ritz et al.[23] using the generalized log-logistic dose-response model. The error bars in Figs. 3 and 4, correspond to the standard errors of the mean. The circles in Fig. 3 correspond to the samples used to calculate the corresponding statistics. The analysis of significance in Fig. 3 was performed using paired t-test across different days (same donor) and unpaired t-test across different donors (same day). In Fig. 3 the number of samples used were n = 3 for donor two, and n = 4 for donor three. For both donors, the number of the freshly thawed hepatocyte samples used to estimate the corresponding log2(Fold Change) were n = 4. Finally, the analysis of significance in Fig. 3 was performed using paired t-test.
# [4] = plasma, cited from earlier work
# [5] = tested on: human Liver-Chip (hepatocytes and non-parenchymal cells); details: for Morphology Donor 1: human
# Description: At least four to six brightfield images were acquired per chip for morphology analysis. […] Brightfield images were acquired across three fields of view on days 1, 3, and 7 for each cycle. Cytotoxicity classification was performed while acquiring images for both NPCs and hepatocytes. Images were then scored zero to four by blinded individuals (n = 2) based on severity of agglomeration of cell debris for both channels. The scoring matrix and representative images have been included in the supplement (Supplementary Fig. 1).
# Hepatocyte layer on Chips
# Non-parenchymal cell layer on Chips
# Supplementary Figure 1. (a) Representative brightfield images to depict the cellular morphology score in the top channel of the Liver-Chip which contains hepatocytes. A score of 0 represents no hepatotoxicity detected, which is defined by 95-100% healthy hepatocyte morphology, hexagonal shape containing binucleated cells, clear cell cytoplasm, distinctive cell junctions and less than 5% dead cells. A score of 1 […]
# cells. A score of 2 represents mild hepatotoxicity with > 70% monolayer of hepatocytes visible, evidence that cells have begun to lose their distinct cell junctions, many cells contain a granulated cytoplasm but < 30% are dead cells. A score of 3 represents moderate hepatotoxicity with severe granulation of cytoplasm and most of the cells have lost their junctions. Approximately 50% of the cells are considered dead. A score of 4 represents severe hepatotoxicity with agglomeration of cell debris and > 50% of the cells are considered dead. The pores on the membrane become visible as there is no longer a cellular monolayer. (b) Representative brightfield images to depict the cellular morphology score in the bottom channel of the Liver-Chip which contains non-parenchymal cells. A score of 0 represents no cytotoxicity detected, with an intact monolayer and <1% of the cells are dead. A score of 1 represents at least 90% of the monolayer is present and there are <10% dead cells. A score of 2 represents mild cytotoxicity with > 80% of the monolayer present and < 20% are dead cells. A score of 3 represents moderate cytotoxicity with > 50% of the monolayer present and < 50% are dead cells. A score of 4 represents severe cytotoxicity with > 50% of the cells are considered dead. (bar, 50 μm). […]
# [6] = tested on: 3D spheroid cultures of primary human hepatocytes; details: cited from earlier work
# [7] = tested on: human Liver-Chip (hepatocyte layer); test: Liver-Chip immunofluorescence imaging (caspase 3/7, TMRM, AdipoRed/LipidTOX); assay type: cell-based
# Description: Chips were detached from pods and washed once with PBS. […] Afterwards, chips were washed with PBS and stored at 4 °C until staining. Following fixation, chips corresponding to low, medium, and high concentrations from each group were cut in half with a razor blade perpendicular to the co-culture channels. One half was used in the following staining protocol, while the other half was stored for future staining. All stains and washes utilized the bubble method, in which a small amount of air is flowed through the channel prior to bulk wash media to prevent a liquid-liquid dilution of the staining solution. […] Following 15 minutes of incubation at room temperature, each channel was washed with 200 µL of PBS (alternating channels, 2× for top and 3× for bottom). As an alternative lipid accumulation marker, 100 µL of HCS LipidTOX Deep Red (ThermoFisher, H34477) was diluted 1:1000 v/v in PBS with NucBlue counterstain and added to the top channel. After a 30 min incubation at room temperature, the chips were again allowed to reach room temperature before the channels were alternatively washed with 200 µL of PBS, the bottom channel undergoing three washes and the top channel undergoing two. Chips were then imaged using the Opera Phenix. Following lipid and DAPI staining and imaging, chips were stained with a […] (MRP2) antibody to visualize the bile canalicular structures characteristic of healthy Liver-Chips. […] Then, each channel was washed with 200 µL of PBS (alternating channels, 2× for top and 3× for bottom). […] Next, primary antibody Mouse anti-MRP2 (Abcam, ab3373) was prepared 1:100 in the original blocking buffer, diluted 1:4 in PBS. 100 µL of solution was added to each channel, and chips were stored overnight at 4 °C. The following day, each channel was washed with 200 µL of PBS (alternating channels, 2× for top and 3× for bottom). […] 100 µL of solution was added to each channel and chips incubated at room temperature, protected from light, for two hours. Then, each channel was washed with 200 µL of PBS (alternating channels, 2× for top and 3× for bottom). Chips were imaged immediately or stored at 4 °C until ready for imaging on the Opera Phenix. Chip replicates designated for live cell imaging were washed with PBS utilizing the bubble method. Chips were then cut in half perpendicular to the co-culture channels. […] The bottom chips halves were stained with NucBlue (Thermo) to visualize nuclei and Tetramethylrhodamine, methyl ester (TMRM) (ThermoFisher, I34361) to visualize active mitochondria. This staining panel was prepared in PBS with 5% FBS, with NucBlue at 2 drops per mL and TMRM at a 1:1000 ratio in original blocking buffer, diluted 1:4 in PBS. Chips were incubated in the dark at 37 °C for 30 min, and then each channel was washed with 200 µL of PBS (alternating channels, 2× for top and 3× for bottom). The chips were kept at 37 °C, protected from light, until ready for imaging with the Opera Phenix. Fluorescent confocal image acquisition was performed using the Opera Phenix High-Content Screening System and Harmony 4.9 Imaging and Analysis Software (PerkinElmer). Before acquisition, the Phenix internal environment was set to 37 °C and 5% CO2. […] Whole chips were placed directly into each slot, while top and bottom half chips were matched and combined in one chip slot. Chips were aligned flush with the adapter and one another. Any bubbles identified from visual inspection were washed out with PBS. Once ready, the stained chips were covered with transparent plate film to seal channel ports and loaded into the Phenix. […] Z-stacks were generated with 3.6 µm between slices for 28–32 planes so that the epithelium was located around the center of the stack. […] Raw images from fixed and live imaging were exported in TIFF format from the Harmony software. Using scripts written for FIJI (ImageJ), TIFFs across three color channels and multiple z-stacks were compiled into composite images for each field of view in each chip. […]
# [8] = tested on: human Liver-Chip (primary human hepatocytes); test: Liver-Chip alanine transaminase (ALT) release in top channel effluent (ELISA); assay type: cell-based
# From the text: as §1, §2, §3, §4
# [9] = human, total plasma Cmax, ref Proctor, W.R. et al. (29)
structure (smiles),measurement,setting,value
CN(C)CCC(c1ccc(Cl)cc1)c1ccccn1 (stereo not shown) [Chlorpheniramine],Chip MOS donor 1,human Liver-Chip,>200
same,Garside DILI rank,[1],3
C[C@]12CC[C@@H]3c4ccc(O)cc4CC[C@H]3[C@@H]1CC[C@@H]2O [Beta-Estradiol],Human Cmax Total,"[2]; human, total plasma Cmax, ref Sivapalasingam, S. & Steigbigel, N. H. (67)",0.0006 µM
same,Albumin IC50 Donor 1,[3],>300 unbound human Cmax multiplier
O=C(O)Cc1ccccc1Nc1c(Cl)cccc1Cl [Diclofenac sodium],Human Cmax Total,[2]; [9],10.1 µM
same,Expected Fraction Unbound in Plasma,"[4]; ref Lau, S.W.J. (65)",0.005
CCc1nn(CCCN2CCN(c3cccc(Cl)c3)CC2)c(=O)n1CCOc1ccccc1 [Nefazodone hydrochloride],Human Cmax Total,[2]; [9],4.3 µM
O=C1CC2(CCCC2)CC(=O)N1CCCCN1CCN(c2ncccn2)CC1 [Buspirone],Human Cmax Total,[2]; [9],0.009 µM
same,Morphology Donor 1,[5],>300 multiples of the unbound human Cmax
same,Spheroid MOS,"[6]; 3D hepatic spheroids, previously published data","16,300"
same,Spheroid false negative,"[6]; Yes/No, also No for drugs not tested in spheroid",No
same,IF imaging Donor 1,[7]; matched pair analysis,Apoptosis
same,Chip MOS donor 1,human Liver-Chip,>15
same,ALT Donor 1,[8]; lowest concentration causing an increase in ALT protein,> 300 multiples of the unbound human Cmax
same,Garside DILI rank,[1],4
CN1CCN(C2=Nc3cc(Cl)ccc3Nc3ccccc32)CC1 [Clozapine],Human Cmax Total,[2]; [9],2.4 µM
same,Expected Fraction Unbound in Plasma,"[4]; ref Lau, S.W.J. (65)",0.055
same,Chip MOS both donors,human Liver-Chip; both donors,1.8
same,Chip MOS donor 1,human Liver-Chip,1.8
same,Chip MOS donor 2,human Liver-Chip; donor 2,5
Cc1cc2c(cc1CC(=O)c1sccc1S(=O)(=O)[N-]c1onc(C)c1Cl)OCO2.[Na+] [Sitax(s)entan sodium salt],Human Cmax Total,"[2]; human, total plasma Cmax, ref National Center for Biotechnology Information (73)",28.6 µM
same,Expected Fraction Unbound in Plasma,"[4]; reference data from the literature, no reference",0.01
CN(C)CCC(c1ccc(Cl)cc1)c1ccccn1 (stereo not shown) [Chlorpheniramine maleate],Human Cmax Total,[2]; [9],0.04 µM
O=C(O)Cc1ccccc1Nc1c(Cl)cccc1Cl [Diclofenac],Morphological injury score change in words,[5],concentration and time-dependent changes
same,Morphology Donor 1,[5],1000 unbound human Cmax multiplier
same,Spheroid MOS,[6],6.1
same,Immunofluorescence staining result in words,"[7]; caspase 3/7 (apoptosis) or TMRM (mitotoxicity), 7 days",apoptosis-mediated cell death
same,"Immunofluorescent findings, donor one (Supplementary Figure 3)","[7]; day 7 post-drug administration, hepatocyte layer, top channel, donor one",Apoptosis
same,IF imaging Donor 1,[7]; expanded drug list,Apoptosis
same,Chip MOS donor 1,human Liver-Chip,1.8
same,ALT change in words,[8]; Liver-Chip effluent,no elevation of ALT
same,ALT Donor 1,"[8]; expanded drug list, lowest concentration causing an increase in ALT release",> 1000 unbound human Cmax multiplier
N[C@@H]1[C@H]2CN(c3nc4c(cc3F)c(=O)c(C(=O)O)cn4-c3ccc(F)cc3F)C[C@@H]12 [Trovafloxacin mesylate],Human Cmax Total,"[2]; human therapeutic total plasma Cmax from literature, ref Xu, J. J. et al. (36)",5 µM
same,Human Cmax Total,"[2]; human, total plasma Cmax, ref Xu, J. J. et al. (36)",5 µM
